# Laboratory results as given in patent US20190365675A1, “COMPOSITIONS FOR THE PREVENTION AND/OR TREATMENT OF ALCOHOL USE DISORDERS” (SERVICIO ANDALUZ DE SALUD, priority 2016, published 2019).
# Columns and labels:
# NF-kB p65 subunit = test: NF-κB p65 mRNA and nuclear activity (ELISA-based kit) in frontal cortex after ethanol intoxication; type: in vivo, Wistar rats
# Method: The animals were treated with intragastric (i.g.) ethanol 3 times a day using an i.g. cannula (16G needle, Fisher Scientific, Waltham, Mass., USA), following a protocol based on a slightly modified standard 4-day alcohol intoxication pattern (Bernier et al., 2002a, b) (FIG. 1A). The ethanol doses were administered every 8 h for a total time of 4 days. The rats treated with ethanol received an initial loading dose of 5 g/kg of ethanol in a 30% solution (w/v) and then a maximum maintenance dose of 3 g/kg, which were determined based on blood ethanol levels (BEL). This repeated standard alcohol intoxication paradigm kept BEL intoxication relatively constant in a range of sedation/ataxia (190 to 430 mg/dl, Table 3), according to the 6-point alcohol intoxication behavior scale (Majchrowicz, 1975). […] The quantitative changes in mRNA levels were estimated by means of RT-PCR, carried out in the presence of the SYBR green primer using a 20-L reaction in a Rotor-Gene (Corbett Research®, Mortlake, NSW, Australia). […] The nuclear extracts of the frontal cortex were incubated with specific NF-kB p65 subunit response element probes, and the binding of p65 to its probe was detected using an antibody specific for this subunit. A secondary antibody labeled by means of horseradish peroxidase was added, and the binding was detected by means of spectrophotometry at 450 nm. […]
# corticosterone = test: Plasma corticosterone levels (R.I.A.); type: in vivo, Wistar rats
# Method: The animals were treated with intragastric (i.g.) ethanol 3 times a day using an i.g. cannula (16G needle, Fisher Scientific, Waltham, Mass., USA), following a protocol based on a slightly modified standard 4-day alcohol intoxication pattern (Bernier et al., 2002a, b) (FIG. 1A). The ethanol doses were administered every 8 h for a total time of 4 days. The rats treated with ethanol received an initial loading dose of 5 g/kg of ethanol in a 30% solution (w/v) and then a maximum maintenance dose of 3 g/kg, which were determined based on blood ethanol levels (BEL). This repeated standard alcohol intoxication paradigm kept BEL intoxication relatively constant in a range of sedation/ataxia (190 to 430 mg/dl, Table 3), according to the 6-point alcohol intoxication behavior scale (Majchrowicz, 1975). The mean dose of ethanol/rat/day (days 1-4) was 7.06 g/kg, similar to other studies (Obernier et al., 2002a, b). […]
# Corticosterone and LPS were measured in plasma by means of the use of radioimmunoassay (R.I.A.) kits available on the market (Coat-A-Count®, Siemens, La., USA) or colorimetric enzymatic reaction (HyCult Biotech, Uden, Netherlands), respectively.
smiles,measurement,setting,value
"CCCCCCCC/C=C\CCCCCCCC(=O)NCCO [OEA, oleoylethanolamide]",Ethanol-induced increase in nuclear activity of p65,"NF-kB p65 subunit; frontal cortex nuclear extracts, OEA pre-treatment",counteracted
same,Ethanol-induced increase in p65 mRNA levels,"NF-kB p65 subunit; frontal cortex, OEA pre-administration",partially prevented
same,Plasma corticosterone levels in the control animals,corticosterone; control animals (no ethanol),did not modify
same,Ethanol-induced increase in plasma corticosterone levels,"corticosterone; plasma, 2-4 h after last ethanol, OEA pre-treatment",prevented entirely
